Results taken from US10858335B2 (Rigel Pharmaceuticals, Inc., priority 2014, dated 2020).

Test system: GDF8 signaling (p-SMAD-3 (Ser423/425))
Experiment: AlphaScreen SureFire SMAD3 (p-Ser423/425) assay, GDF8-stimulated cells (GDF pSMAD)
Assay type: cell-based
Settings: Mus musculus, MPC-11, GDF8-stimulated pSMAD3, MPC11; tested as the salt form given; read-out: GDF pSMAD (MPC11) (μM), inhibition of GDF8 signaling
Excerpt: Biological Example 1: AlphaScreen® SureFire® SMAD3 (p-Ser423/425) Assay
The p-SMAD-3 (Ser423/425) SureFire® assay has been designed to measure the phosphorylation of endogenous cellular p-SMAD-3 (Ser423/425) in cell lysates and is a system for the screening of both modulators of receptor activation (e.g. agonists and antagonists) as well as agents acting intracellularly, such as small molecule inhibitors of upstream events. The assay will measure p-SMAD-3 (Ser423/425) activation by either cloned or endogenous receptors, and can be applied to primary cells.
P-SMAD-3 (Ser423/425) SureFire® Assay Protocols
Step A: Preparation of Buffers
1× Lysis buffer: 1 ml of 5× Lysis buffer was diluted with 4 ml of sterile water. After dilution, excess 1× Lysis buffer can be frozen and thawed up to 5 times without loss in activity.
Activation buffer: The buffer was warmed slowly to 37° C. and gently mixed to re-suspend. Activation buffer can be stored at room temperature with no loss in activity.
Reaction buffer: The buffer was kept at 4° C. while in use.
AlphaScreen® Protein A IgG Kit: The kit was stored at 4° C. in the dark.
Reaction buffer+Activation buffer+AlphaScreen® Acceptor beads: Reaction buffer (40 parts), Activation Buffer (10 parts) and Acceptor beads (1 part) were mixed and the mixture was stored at room temperature and used the same day. Mixture was added to 384-well plates; excess mixture was discarded.
Dilution buffer+AlphaScreen® Donor beads: Dilution buffer (20 parts) and Donor beads (1 part) were mixed and the mixture was stored at room temperature and used the same day. Excess mixture was discarded.
Assay control samples: After reconstitution in 250 μl of water, lysates were at −20° C. in single use aliquots.
Step B: Preparation of Samples and Cells
96-well Assay Protocol for 293FT and RMS13 adherent cells can be carried out manually or in high throughput with liquid handling robots.
The cells (80 μL of cells for 96 well plates) were plated in collagen coated tissue culture plates in RPMI or FreeStyle medium (Invitrogen) and incubated overnight. For manual analysis, 6 plates for GDF8, 6 plates for TGFβ, and optionally 6 plates for AlkSca(ALK5 constitutively active) were used.
The compound dilution plates were prepared as follows: 12 μL of DMSO was transferred into first column of 96-well plate, and 16 μL of DMSO was transferred into columns 2-12 of the 96-well plate. 12 μL of compound solution was transferred into first column of the DMSO-containing 96-well plate. Three-fold dilution was performed up to column 10 of the DMSO-containing 96-well plate.
Step C: Treatment and Analysis
The plate containing cells were treated with compounds for about 10 minutes, and then ligand was added. GDF8 or TGFb was added to plates to stimulate. 293FL cells were stimulated for 90 minutes at 37° C.; and RMS13 cells were stimulated for 60 minutes at 37° C. The medium was then removed from the cells, and 1× Lysis Buffer (about 25 μL) was added and the plate was gently agitated on plate shaker for 5-10 minutes.
The lysate (5 μL) was then placed into 384-well shallow plates avoiding the generation of bubbles. To this, the Reaction Buffer+Activation Buffer+AlphaScreen® Acceptor beads mixture (5 μL) was added. The plate was sealed with adhesive cover and shielded from light (e.g., with metal foil), and agitated gently on plate shaker for 2 hours at room temperature.
Dilution buffer+AlphaScreen® Donor beads (2 μL) was then added, and the plate was intubated on the plate shaker for an additional 1½ hours. After completion, the plate was read on Synergy-4 or Enspire plate reader, using AlphaScreen® pSMAD3® settings.
Representative results for inhibition of GDF8 signaling are shown in Table 2(data=GDF pSMAD (MPC11) (μM)): […]

IC50 [µM] | SMILES
5.81 | COc1cc(-c2ncccc2-c2ccc3ncnc(N)c3c2)c(Cl)cc1F [compound 1008, 6-(2-(2-chloro-4-fluoro-5-methoxyphenyl)pyridin-3-yl)quinazolin-4-amine]

Same assay, conditions: Mus musculus, MPC-11, MPC11; GDF8-stimulated; p-SMAD3 AlphaScreen; read-out: GDF pSMAD (MPC11) (inhibition of GDF8 signaling)

IC50 [µM] | SMILES
0.679 | Cc1cc(-c2ncc(NCc3ccc(Cl)nc3)cc2-c2ccc3ncsc3c2)ccc1F [compound 321, 5-(Benzo[d]thiazol-6-yl)-N-((6-chloropyridin-3-yl)methyl)-6-(4-fluoro-3-methylphenyl)pyridin-3-amine]
0.551 | Nc1ncnc2ccc(-c3cccnc3-c3cccc(F)c3)cc12 [compound 461, 6-(2-(3-Fluorophenyl)pyridin-3-yl)quinazolin-4-amine]
0.499 | COc1cccc(-c2ncccc2-c2ccc3ncsc3c2)c1 [compound 669, 6-(2-(3-Methoxyphenyl)pyridin-3-yl)benzo[d]thiazole]
5.94 | Cc1cc(-c2ncccc2-c2ccc3nccc(N)c3c2)ccc1F [compound 836, 6-(2-(4-Fluoro-3-methylphenyl)pyridin-3-yl)quinolin-4-amine]
0.186 | Cc1cccc(-c2ncccc2-c2ccc3[nH]ncc3c2)c1 [Compound 68, 5-(2-m-Tolylpyridin-3-yl)-1H-indazole]
2.19 | Cc1cc(-c2ncccc2-c2ccc3ncc(C(=O)Nc4cccc(S(N)(=O)=O)c4)n3c2)ccc1F [compound 616, 6-(2-(4-Fluoro-3-methylphenyl)pyridin-3-yl)-N-(3-sulfamoylphenyl)imidazo[1,2-a]pyridine-3-carboxamide]
2.23 | COc1cc(-c2cnc3ccc(-c4cccnc4-c4cccc(C)c4)cn23)cc(OC)c1OC [compound 578, 6-(2-(m-Tolyl)pyridin-3-yl)-3-(3,4,5-trimethoxyphenyl)imidazo[1,2-a]pyridine]
3.69 | COc1cc(NC(=O)c2cnc3ccc(-c4cccnc4-c4cccc(C(F)(F)F)c4)cn23)cc(OC)c1OC [compound 576, 6-(2-(3-(Trifluoromethyl)phenyl)pyridin-3-yl)-N-(3,4,5-trimethoxyphenyl)imidazo[1,2-a]pyridine-3-carboxamide]
2.14 | Cc1c(-c2cccnc2-c2cc(Cl)ccc2F)ccc2ncnn12 [compound 812, 6-(2-(5-Chloro-2-fluorophenyl)pyridin-3-yl)-5-methyl-[1,2,4]triazolo[1,5-a]pyridine]
0.52 | CC(=O)c1cnc2ccc(-c3cccnc3-c3cccc(Cl)c3)cn12 [compound 763, 1-(6-(2-(3-Chlorophenyl)pyridin-3-yl)imidazo[1,2-a]pyridin-3-yl)ethan-1-one]
0.346 | COc1cccc(-c2ncccc2-c2ccc3ncc(C#N)n3c2)c1 [compound 626, 6-(2-(3-Methoxyphenyl)pyridin-3-yl)imidazo[1,2-a]pyridine-3-carbonitrile]
0.198 | Cc1cc(-c2ncc(NCc3nccs3)cc2-c2ccc3ncsc3c2)ccc1F [compound 326, 5-(Benzo[d]thiazol-6-yl)-6-(4-fluoro-3-methylphenyl)-N-(thiazol-2-ylmethyl)pyridin-3-amine]
4.04 | Cc1cc(-c2ncccc2-c2ccc3[nH]ncc3c2)ccc1O [Compound 122, 4-(3-(1H-Indazol-5-yl)pyridin-2-yl)-2-methylphenol]
0.105 | Cc1cnc2ccc(-c3cccnc3-c3cc(Cl)c(F)cc3F)cn12 [compound 766, 6-(2-(5-Chloro-2,4-difluorophenyl)pyridin-3-yl)-3-methylimidazo[1,2-a]pyridine]
20.7 | NC(=O)c1ccnc2ccc(-c3cccnc3-c3cc(Cl)c(F)cc3F)cc12 [compound 850, 6-(2-(5-Chloro-2,4-difluorophenyl)pyridin-3-yl)quinoline-4-carboxamide]
0.457 | Cc1cc(-c2ncc(NCc3c[nH]c4ncccc34)cc2-c2ccc3ncsc3c2)ccc1F [compound 330, N-((1H-Pyrrolo[2,3-b]pyridin-3-yl)methyl)-5-(benzo[d]thiazol-6-yl)-6-(4-fluoro-3-methylphenyl)pyridin-3-amine]
0.214 | O=c1[nH]cnc2ccc(-c3cccnc3-c3cc(Cl)c(F)cc3F)cc12 [compound 823, 6-(2-(5-Chloro-2,4-difluorophenyl)pyridin-3-yl)quinazolin-4(3H)-one]
0.507 | Fc1cc(F)c(-c2ncccc2-c2ccc3ncsc3c2)cc1F [compound 693, 6-(2-(2,4,5-Trifluorophenyl)pyridin-3-yl)benzo[d]thiazole]
1.17 | COc1cc(NC(=O)c2cnc3ccc(-c4cccnc4-c4cccc(C5CC5)c4)cn23)cc(OC)c1OC [compound 575, 6-(2-(3-Cyclopropylphenyl)pyridin-3-yl)-N-(3,4,5-trimethoxyphenyl)imidazo[1,2-a]pyridine-3-carboxamide]
1.84 | Fc1ccc(-c2ncccc2-c2ccc3ncsc3c2)cc1F [compound 661, 6-(2-(3,4-Difluorophenyl)pyridin-3-yl)benzo[d]thiazole]
4.44 | Cc1cc(-c2ncccc2-c2ccc3cnc(C(=O)NCCN4CCOCC4)n3c2)ccc1F [compound 271, 6-(2-(4-Fluoro-3-methylphenyl)pyridin-3-yl)-N-(2-morpholinoethyl)imidazo[1,5-a]pyridine-3-carboxamide]
18.6 | N#Cc1cccc(-c2ncccc2-c2cnc3cn[nH]c3c2)c1 [Compound 141, 3-(3-(1H-Pyrazolo[4,3-b]pyridin-6-yl)pyridin-2-yl)benzonitrile]
0.281 | Cc1cc(-c2ncccc2-c2ccc3ncc(C(=O)NCCCO)n3c2)ccc1F [compound 704, 6-(2-(4-Fluoro-3-methylphenyl)pyridin-3-yl)-N-(3-hydroxypropyl)imidazo[1,2-a]pyridine-3-carboxamide]
0.699 | Cc1cc(-c2ncccc2-c2ccc3nccnc3c2)ccc1F [compound 539, 6-(2-(4-Fluoro-3-methylphenyl)pyridin-3-yl)quinoxaline]
17.7 | Cc1cccc(-c2ncccc2-c2ccc3nc(C)cn3c2)c1 [compound 532, 2-Methyl-6-(2-(m-tolyl)pyridin-3-yl)imidazo[1,2-a]pyridine]
7.45 | Cc1cc(-c2ncc(NC3CCN(C)CC3)cc2-c2ccc3nccnc3c2)ccc1F [compound 240, 6-(4-Fluoro-3-methylphenyl)-N-(1-methylpiperidin-4-yl)-5-(quinoxalin-6-yl)pyridin-3-amine]
2.05 | Cc1cc(-c2ncccc2-c2ccc3ncc(C(C)O)n3c2)ccc1F (racemic) [compound 598, rac-1-(6-(2-(4-Fluoro-3-methylphenyl)pyridin-3-yl)imidazo[1,2-a]pyridin-3-yl)ethan-1-ol]
1.22 | CN1CCC(NC(=O)c2cnc3ccc(-c4cccnc4-c4cc(F)c(F)cc4F)cn23)CC1 [compound 710, N-(1-Methylpiperidin-4-yl)-6-(2-(2,4,5-Trifluorophenyl)pyridin-3-yl)imidazo[1,2-a]pyridine-3-carboxamide]
8.23 | Cc1cccc(-c2ncccc2-c2ccc3ncn(C(C)C)c3c2)c1 [compound 47]
0.288 | Cc1cc(-c2ncccc2-c2ccc3ncc(C(=O)NCCN)n3c2)ccc1F [compound 681, N-(2-Aminoethyl)-6-(2-(4-fluoro-3-methylphenyl)pyridin-3-yl)imidazo[1,2-a]pyridine-3-carboxamide]

SMILES | IC50 [µM]
Cc1cc(-c2ncccc2-c2ccc3ncc(C(=O)NC4CC5CCC(C4)N5C)n3c2)ccc1F (racemic) [compound 711, rac-6-(2-(4-Fluoro-3-methylphenyl)pyridin-3-yl)-N-(8-methyl-8-azabicyclo[3.2.1]octan-3-yl)imidazo[1,2-a]pyridine-3-carboxamide] | 9.28
